In patent publication US20230095520A1, “PHARMACEUTICAL COMPOSITION FOR PREVENTING OR TREATING CANCER COMPRISING AZOLE DERIVATIVES OR PHARMACEUTICALLY ACCEPTABLE SALT THEREOF” (Yungjin Pharm. Co., Ltd., priority 2020, published 2023):

Assays:
MDA-MB-468 cells = assay: MDA-MB-468 cell proliferation inhibition (MTT); assay type: cell-based; settings: for Inhibition rate (%): MDA-MB-468, compound concentration 100 nM; for IC50: MDA-MB-468 proliferation
Description: MDA-MB-468 cells are one of the triple-negative breast cancer (TNBC: negative for the expression of estrogen receptor, progesterone receptor and HER2) cells known as a malignant tumor that is difficult to diagnose at an early stage and has a high metastatic capacity, and these cells are used to test inhibition of proliferation and survival of breast cancer cells.
MDA-MB-468 cells cultured in a 96-well cell culture plate were treated with the compound of the present invention and cultured for 72 hours. Thereafter, the antiproliferative effect of the compound was assayed by the MTT method using a tetrazolium salt.

MV-4-11 cells = assay: MV-4-11 cell proliferation inhibition (CCK-8); assay type: cell-based; settings: 72 hours; for Inhibition rate (%): MV-4-11, compound concentration 100 nM; for IC50: MV4-11, MV-4-11 proliferation
Description: MV-4-11 cells are one of the acute myeloid leukemia cells with a Fms-like tyrosine kinase (FLT3) gene mutation, and these cells are used to test inhibition of proliferation and survival of leukemia cells.
MV-4-11 cells cultured in a 96-well cell culture plate were treated with the compound of the present invention and cultured for 72 hours. Thereafter, the antiproliferative effect of the compound was assayed by the CCK-8 method using a tetrazolium salt.

[1] = target: T1, Recombinant purified human CDK7 (Homo sapiens, UniProt P50613); assay: CDK7 activity inhibition, ADP-Glo kinase assay; assay type: biochemical; settings: ATP 90 μM, MBP substrate, 2 hours 30° C.
T1 construct: purchased ThermoFisher PV3868
T1 sequence (P50613 whole entry): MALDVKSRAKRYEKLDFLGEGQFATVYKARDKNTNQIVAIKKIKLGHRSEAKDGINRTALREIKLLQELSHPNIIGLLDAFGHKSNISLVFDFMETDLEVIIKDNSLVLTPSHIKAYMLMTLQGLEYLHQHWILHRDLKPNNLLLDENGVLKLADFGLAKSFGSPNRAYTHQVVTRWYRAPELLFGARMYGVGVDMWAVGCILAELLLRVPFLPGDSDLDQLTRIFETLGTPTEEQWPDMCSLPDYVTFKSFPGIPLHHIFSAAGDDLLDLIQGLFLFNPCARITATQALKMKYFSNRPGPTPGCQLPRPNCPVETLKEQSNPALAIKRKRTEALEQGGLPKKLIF
T1 sequence (P51946 whole entry partner): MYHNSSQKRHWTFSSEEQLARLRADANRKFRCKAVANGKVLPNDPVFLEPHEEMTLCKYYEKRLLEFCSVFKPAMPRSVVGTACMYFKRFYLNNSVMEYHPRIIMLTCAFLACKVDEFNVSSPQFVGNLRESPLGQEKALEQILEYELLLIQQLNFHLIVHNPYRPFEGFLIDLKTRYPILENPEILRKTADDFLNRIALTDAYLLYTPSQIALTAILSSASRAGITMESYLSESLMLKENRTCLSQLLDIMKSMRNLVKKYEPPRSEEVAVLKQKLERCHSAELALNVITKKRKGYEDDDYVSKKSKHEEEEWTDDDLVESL
T1 sequence (P51948 whole entry partner): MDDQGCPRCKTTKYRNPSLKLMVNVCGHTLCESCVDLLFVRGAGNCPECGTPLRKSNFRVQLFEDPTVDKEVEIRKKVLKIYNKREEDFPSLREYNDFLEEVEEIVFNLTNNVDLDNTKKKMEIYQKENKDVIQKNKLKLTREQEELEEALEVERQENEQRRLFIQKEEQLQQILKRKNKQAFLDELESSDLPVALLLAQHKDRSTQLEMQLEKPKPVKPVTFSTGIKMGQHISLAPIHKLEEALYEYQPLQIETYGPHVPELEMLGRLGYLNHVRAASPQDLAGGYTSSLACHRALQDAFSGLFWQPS
Procedure, shortened: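 Human recombinant CDK7 (50 ng per reaction) in 40 mM Tris-Cl pH 7.5, 20 mM MgCl2, 0.1 mg/ml BSA, 50 μM DTT, with 1% DMSO. The reaction used 90 μM ATP and 0.2 μg/μl MBP substrate for 2 h at 30 °C. ADP formed was quantified by ADP-Glo luminescence to derive inhibition.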

HepG2 cells = assay: HepG2 cell proliferation inhibition (CCK-8); assay type: cell-based; settings: Homo sapiens, HepG2, 72 h
Description: HepG2 cells are human hepatocellular carcinoma cells. In order to evaluate the efficacy of inhibiting the proliferation in HepG2 cells, HepG2 cells were treated with the compounds of the present invention, and the proliferation level was measured as follows.
The cells were cultured with a culture medium of MEM (Welgene)+10% FBS (Gibco)+1% penicillin/streptomycin (Gibco) at 37° C. in a humidified condition in the presence of 5% CO2. HepG2 cells cultured in a 96-well cell culture plate were treated with the compound of the present invention and cultured for 72 hours.

Hep3B = assay: Cancer cell proliferation GI50 (CCK-8); assay type: cell-based; settings: liver cancer, 72 hours
Description: (§1) The proliferation effect of SY-1365, which is known to have a proliferation inhibitory effect on various carcinoma cells, and the compound of the present invention on various cancer cells was measured and compared as GI50 (half maximal growth inhibitory concentration, the concentration at which cell proliferation is reduced by half).
(§2) Various carcinoma cells were cultured at 37° C. in a humidified condition in the presence of 5% CO2. Each cell cultured in a 96-well cell culture plate was treated with the compound of the present invention and cultured for 72 hours.
(§3) In this example, in order to confirm the proliferation inhibitory effect on various cancer cells, Compound 121 was tested as follows.
(§4) The cells were cultured with a culture medium shown in Table 9 below at 37° C. in a humidified condition in the presence of 5% CO2. Each cell cultured in a 96-well cell culture plate was treated with the compound of the present invention and cultured for 72 hours.

Huh7 = assay: Cancer cell proliferation GI50 (CCK-8); assay type: cell-based; settings: Huh7 (Huh-7), liver cancer, 72 hours
Description: as §1, §2, §3, §4

MDA-MB-231 = assay: Cancer cell proliferation GI50 (CCK-8); assay type: cell-based; settings: MDA-MB-231, breast cancer, 72 hours
Description: as §1, §2, §3, §4

MDA-MB-468 = assay: Cancer cell proliferation GI50 (CCK-8); assay type: cell-based; settings: MDA-MB-468, breast cancer, 72 hours
Description: as §1, §2, §3, §4

HepG2 = assay: Cancer cell proliferation GI50 (CCK-8); assay type: cell-based, human; settings: HepG2, liver cancer, 72 hours
Description: as §1, §2, §3, §4

| Compound | IC50 [1] [nM] | IC50 (MV-4-11 cells; Homo sapiens) [nM] | also measured |
| --- | --- | --- | --- |
| C=CC(=O)Nc1cncc(-c2cccc([C@H](C)C(=O)Nc3ncc(C4CC4)s3)c2)n1 [Compound 16] | – | – | Inhibition rate (%) (MDA-MB-468 cells; 72 hours): 53%; Inhibition rate (%) (MV-4-11 cells): 90% |
| C=CC(=O)Nc1cnc(-c2cccc([C@H](C)C(=O)Nc3ncc(C4CC4)s3)c2)cn1 [Compound 22] | – | – | Inhibition rate (%) (MDA-MB-468 cells; 72 hours): 72%; Inhibition rate (%) (MV-4-11 cells): 100% |
| C=CC(=O)Nc1ncc(-c2cccc([C@H](C)C(=O)Nc3ncc(C4CC4)s3)c2)cn1 [Compound 27] | – | – | Inhibition rate (%) (MDA-MB-468 cells; 72 hours): 74%; Inhibition rate (%) (MV-4-11 cells): 100% |
| C=CC(=O)Nc1ccc(-c2cccc([C@H](C)C(=O)Nc3ncc(C4CC4)s3)c2)nn1 [Compound 28] | – | – | Inhibition rate (%) (MDA-MB-468 cells; 72 hours): 74%; Inhibition rate (%) (MV-4-11 cells): 100% |
| C=CC(=O)Nc1ncc(-c2cccc([C@H](C)C(=O)Nc3ncc(C4CC4)s3)c2)cc1F [Compound 29] | – | – | Inhibition rate (%) (MDA-MB-468 cells; 72 hours): 75%; Inhibition rate (%) (MV-4-11 cells): 100% |
| C=CC(=O)Nc1cnc(-c2cncc(C(C)C(=O)Nc3ncc(C(F)(F)F)s3)c2)cn1 (stereo not drawn) [Compound 45, N-(5-(5-(1-oxo-1-((5-(trifluoromethyl)thiazol-2-yl)amino)propan-2-yl)pyridin-3-yl)pyrazin-2-yl)acrylamide] | 22.7 | 8 | IC50 (MDA-MB-468 cells; Homo sapiens, MDA-MB-468, 72 h): ≤ 14 nM; IC50 (MDA-MB-468 cells; 72 hours): 9.5 nM; inhibition at 0.1 µM (MV-4-11 cells; Homo sapiens, MV4-11, MV-4-11, compound concentration 100 nM, read-out: Inhibition rate (%)): 100%; IC50 (HepG2 cells): 8.3 nM |
| CC(C(=O)Nc1ncc(C(F)(F)F)s1)c1cncc(-c2cnc(NC(=O)/C=C/CN(C)C)cn2)c1 (stereo not drawn) [Compound 63, (E)-4-(dimethylamino)-N-(5-(5-(1-oxo-1-((5-(trifluoromethyl)thiazol-2-yl)amino)propan-2-yl)pyridin-3-yl)pyrazin-2-yl)but-2-enamide] | 17.8 | 5.2 | – |
| CC(C(=O)Nc1ncc(Cl)s1)c1cncc(-c2cnc(NC(=O)/C=C/CN(C)C)cn2)c1 (stereo not drawn) [Compound 73, (E)-N-(5-(5-(1-((5-chlorothiazol-2-yl)amino)-1-oxopropan-2-yl)pyridin-3-yl)pyrazin-2-yl)-4-(dimethylamino)but-2-enamide] | 43.4 | 11 | – |
| CC(C(=O)Nc1ncc(C(F)(F)F)s1)c1cncc(-c2cnc(NC(=O)/C=C/CN3CCOCC3)cn2)c1 (stereo not drawn) [Compound 74, (E)-4-morpholino-N-(5-(5-(1-oxo-1-((5-(trifluoromethyl)thiazol-2-yl)amino)propan-2-yl)pyridin-3-yl)pyrazin-2-yl)but-2-enamide] | 77 | 30.3 | – |
| C=CC(=O)Nc1ccc(-c2cncc(C(C)C(=O)Nc3ncc(C(F)(F)F)s3)c2)cn1 (stereo not drawn) [Compound 82, N-(5′-(1-oxo-1-((5-(trifluoromethyl)thiazol-2-yl)amino)propan-2-yl)-[3,3′-bipyridin]-6-yl)acrylamide] | 36 | 9.1 | – |
| CC(C(=O)Nc1ncc(C(F)(F)F)s1)c1cncc(-c2cnc(NC(=O)/C=C/CN3CC4CC3CO4)cn2)c1 (stereo not drawn) [Compound 83, (E)-4-(2-oxa-5-azabicyclo[2.2.1]heptan-5-yl)-N-(5-(5-(1-oxo-1-((5-(trifluoromethyl)thiazol-2-yl)amino)propan-2-yl)pyridin-3-yl)pyrazin-2-yl)but-2-enamide] | 23 | 6.9 | – |
| C[C@H](C(=O)Nc1ncc(C(F)(F)F)s1)c1cccc(-c2cnc(NC(=O)/C=C/CN3CC4CC3CO4)cn2)c1 (stereo partly drawn) [Compound 96, (E)-4-(2-oxa-5-azabicyclo[2.2.1]heptan-5-yl)-N-(5-(3-((S)-1-oxo-1-((5-(trifluoromethyl)thiazol-2-yl)amino)propan-2-yl)phenyl)pyrazin-2-yl)but-2-enamide] | 7.6 | 43.9 | – |
| C[C@H](C(=O)Nc1ncc(C(F)(F)F)s1)c1cccc(-c2cnc(NC(=O)/C=C/CN(C)C)c(F)c2)c1 [Compound 99, (S,E)-4-(dimethylamino)-N-(3-fluoro-5-(3-(1-oxo-1-((5-(trifluoromethyl)thiazol-2-yl)amino)propan-2-yl)phenyl)pyridin-2-yl)but-2-enamide] | 7.6 | 12.7 | – |
| C[C@H](C(=O)Nc1ncc(C(F)(F)F)s1)c1cccc(-c2cnc(NC(=O)/C=C/CN(C)C)c(C#N)c2)c1 [Compound 101, (S,E)-N-(3-cyano-5-(3-(1-oxo-1-((5-(trifluoromethyl)thiazol-2-yl)amino)propan-2-yl)phenyl)pyridin-2-yl)-4-(dimethylamino)but-2-enamide] | 4.3 | 12.3 | – |
| C[C@H](C(=O)Nc1ncc(C2CCC2)s1)c1cccc(-c2cnc(NC(=O)/C=C/CN(C)C)cn2)c1 [Compound 104, (S,E)-N-(5-(3-(1-((5-cyclobutylthiazol-2-yl)amino)-1-oxopropan-2-yl)phenyl)pyrazin-2-yl)-4-(dimethylamino)but-2-enamide] | 9 | 30.7 | – |
| CC(C(=O)Nc1ncc(C(F)(F)F)s1)c1cncc(-c2cnc(NC(=O)/C=C/CN(C)C)c(C#N)c2)c1 (stereo not drawn) [Compound 108, (E)-N-(5-cyano-5′-(1-oxo-1-((5-(trifluoromethyl)thiazol-2-yl)amino)propan-2-yl)-[3,3′-bipyridin]-6-yl)-4-(dimethylamino)but-2-enamide] | 10.5 | 7.1 | – |
| C[C@H](C(=O)Nc1ncc(C(F)(F)F)s1)c1cccc(-c2cnc(NC(=O)/C=C/CN3CC[C@@H](F)C3)cn2)c1 [Compound 115, (E)-4-((R)-3-fluoropyrrolidin-1-yl)-N-(5-(3-((S)-1-oxo-1-((5-(trifluoromethyl)thiazol-2-yl)amino)propan-2-yl)phenyl)pyrazin-2-yl)but-2-enamide] | 17 | – | IC50 (HepG2 cells): 12.6 nM |
| C[C@H](C(=O)Nc1ncc(C(F)(F)F)s1)c1cccc(-c2cnc(NC(=O)/C=C/CN3CCC(O)C3)cn2)c1 (stereo partly drawn) [Compound 119, (E)-4-(3-hydroxypyrrolidin-1-yl)-N-(5-(3-((S)-1-oxo-1-((5-(trifluoromethyl)thiazolyl)amino)propan-2-yl)phenyl)pyrazin-2-yl)but-2-enamide] | 9 | – | IC50 (MDA-MB-468 cells; 72 hours): 44 nM |
| CCc1cnc(NC(=O)[C@@H](C)c2cccc(-c3cnc(NC(=O)/C=C/CN(C)C)c(F)c3)c2)s1 [Compound 130, (S,E)-4-(dimethylamino)-N-(5-(3-(1-((5-ethylthiazol-2-yl)amino)-1-oxopropan-2-yl)phenyl)-3-fluoropyridin-2-yl)but-2-enamide] | 4 | – | IC50 (MDA-MB-468 cells; Homo sapiens, MDA-MB-468, 72 h): ≤ 14 nM; IC50 (MDA-MB-468 cells; 72 hours): 7 nM |
| CN(C)C/C=C/C(=O)Nc1ccc(C(=O)N[C@@]2(C)CCC[C@@H](Nc3ncc(Cl)c(-c4c[nH]c5ccccc45)n3)C2)nc1 [SY-1365, reference compound] | – | – | GI50 (Hep3B): 36 nM; GI50 (Huh7): 20 nM; GI50 (MDA-MB-231): 70 nM; GI50 (MDA-MB-468): 18 nM; GI50 (HepG2): 19 nM |
